Results as given in patent publication US6111065A, “Peptide inhibitors of inflammation mediated by selectins” (Centocor, Inc., priority 1994, dated 2000).
No end group written: not given here.

Target: T1, GMP-140 (Homo sapiens, UniProt P16109)
T1 construct: from tissue; host or cells: human platelets (outdated platelet packs from a blood bank)
T1 sequence (P16109 42-830): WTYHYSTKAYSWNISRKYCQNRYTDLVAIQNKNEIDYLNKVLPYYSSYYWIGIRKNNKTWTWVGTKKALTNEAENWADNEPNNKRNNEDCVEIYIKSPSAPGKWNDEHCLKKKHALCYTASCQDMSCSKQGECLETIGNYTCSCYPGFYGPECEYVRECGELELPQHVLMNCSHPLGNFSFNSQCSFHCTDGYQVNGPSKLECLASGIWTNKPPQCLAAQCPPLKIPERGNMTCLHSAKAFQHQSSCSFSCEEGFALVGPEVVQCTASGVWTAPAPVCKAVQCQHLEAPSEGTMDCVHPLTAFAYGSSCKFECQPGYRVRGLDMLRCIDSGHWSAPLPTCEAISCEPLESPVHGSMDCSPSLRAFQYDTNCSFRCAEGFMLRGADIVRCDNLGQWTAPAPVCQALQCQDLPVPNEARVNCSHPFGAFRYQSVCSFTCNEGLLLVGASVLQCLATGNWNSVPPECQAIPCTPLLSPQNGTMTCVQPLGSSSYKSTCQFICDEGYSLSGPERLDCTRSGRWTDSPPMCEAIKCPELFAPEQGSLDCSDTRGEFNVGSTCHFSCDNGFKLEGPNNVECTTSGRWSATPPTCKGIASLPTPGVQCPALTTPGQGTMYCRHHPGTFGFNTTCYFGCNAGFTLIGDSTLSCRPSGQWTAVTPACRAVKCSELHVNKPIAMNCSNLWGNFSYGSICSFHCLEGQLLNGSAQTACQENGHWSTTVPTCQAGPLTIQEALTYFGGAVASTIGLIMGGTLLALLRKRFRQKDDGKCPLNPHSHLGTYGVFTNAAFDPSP
Test: Inhibition of neutrophil binding to GMP-140 coated wells
Format: cell-based
Settings: read-out: PERCENT INHIBITION OF NEUTROPHIL BINDING
Source text: Peptides can be screened for their ability to inhibit adhesion to cells, for example, neutrophil adhesion to purified GMP-140 immobilized on plastic wells, using the assay described by Geng, et al., Nature 343, 757-760 (1990).
Human neutrophils are isolated from heparinized whole blood by density gradient centrifugation on Mono-Poly resolving media, Flow Laboratories. Neutrophil suspensions are greater than 98% pure and greater than 95% viable by trypan blue exclusion. For adhesion assays, neutrophils are suspended at a concentration of 2×10^6 cells/ml in Hanks' balanced salt solution containing 1.26 mM Ca^2+ and 0.81 mM Mg^2+ (HBSS, Gibco) with 5 mg/ml human serum albumin (HBSS/HSA). Adhesion assays are conducted in triplicate in 96-well microtiter plates, Corning, incubated at 4° C. overnight with 50 microliters of various protein solutions.
GMP-140 is isolated from human platelet lysates by immunoaffinity chromatography on antibody S12-Sepharose™ and ion-exchange chromatography on a Mono-Q™ column (FLPC, Pharmacia Fine Chemicals), as follows.
Outdated human platelet packs (100 units) obtained from a blood bank and stored at 4° C. are pooled, adjusted to 5 mM EDTA at pH 7.5, centrifuged at 4,000 rpm for 30 min in 1 liter bottles, then washed three times with 1 liter of 0.1 M NaCl, 20 mM Tris pH 7.5 (TBS), 5 mM EDTA, 5 mM benzamidine.
The pellets are then resuspended in a minimum amount of wash buffer and made 1 mM in DIFP, then frozen in 50 ml screwtop tubes at -80° C. The frozen platelets are thawed and resuspended in 50 ml TBS, 5 mM benzamidine, 5 mM EDTA pH 7.5, 100 µM leupeptin. The suspension is frozen and thawed two times in a dry ice-acetone bath using a 600 ml lyophilizing flask, then homogenized in a glass/teflon mortar and pestle and made 1 mM in DIFP. The NaCl concentration is adjusted to 0.5 M with a stock solution of 4 M NaCl. […]
Bound GMP-140 is eluted from the S12 Affigel with 100 ml of 80% ethylene glycol, 1 mM MES pH 6.0, 0.01% Lubrol PX. Peak fractions with absorbance at 280 nm are pooled. […]

inhibition at 100 µM (peptide concentration 0.10 Mm): 19%
inhibition at 300 µM (peptide concentration 0.30 Mm): 63%
inhibition at 1000 µM (peptide concentration 1.0 Mm): 67%
Substance: RKEAEIWTDV-NH2 [RKEAEIWTDV-NH2, Arginyl-lysyl-glutamyl-alanyl-glutamyl-isoleucyl-tryptophyl-threonyl-aspartyl-valine amide]
